These results are taken from patent US20050076398A1, “Animal model of chronic stress diseases and method for producing the same” (Ajinomoto Co., Inc., priority 2002, published 2005).

The assay concerns lysine deficient rats. Kind of assay: Effect of a medicine on abnormal bowel movement of lysine deficient rats (carmine dye feces count). The format is in vivo, rats (male Wistar). The conditions noted are these: oral administration with carmine dye; rats fed low lysine diet 7 days, fasted one day; Dunnett's method.

Text: The low lysine diet (n=10) or lysine-containing diet (normal diet; n=10) was given to rats (Charles River Japan, Inc, male Wistar rats, 5W). The rats fed for 7 days were used. Each rat was fasted one day before the start of the experiments (on the 6th day after beginning the feeding of the experimental diet) and then a medicine and carmine dye were orally administered. The number of the carmine colorant-containing feces was cumulatively counted sequentially. The statistical analysis was conducted according to Dunnett's method.

Take `Cc1[nH]cnc1CN1CCc2c(c3ccccc3n2C)C1=O` [Alosetron]: the “acceleration of the excretion of carmine-containing feces” value was “significantly control the acceleration of the excretion of the feces”.
